Experimental data: ChEMBL document CHEMBL1143427, “Interactions of ceftobiprole with beta-lactamases from molecular classes A to D” (Antimicrob Agents Chemother, 2007)
Values after ≈ are worked out from the molar mass of the structure shown.

Experiments:
Assay type in all cases: functional
Serratia marcescens [1] = assay: Antibacterial activity against Serratia marcescens 4104 producing beta lactamase AmpC by broth microdilution method
Klebsiella pneumoniae [2] = assay: Antibacterial activity against Klebsiella pneumoniae 4238 producing beta lactamase SHV1 by broth microdilution method
Pseudomonas aeruginosa [3] = assay: Antibacterial activity against Pseudomonas aeruginosa MK-1184 producing beta lactamase AmpC by broth microdilution method
Pseudomonas aeruginosa [4] = assay: Antibacterial activity against Pseudomonas aeruginosa 4352 producing beta lactamase AmpC by broth microdilution method
Klebsiella oxytoca = assay: Antibacterial activity against Klebsiella oxytoca 4076 producing beta lactamase K1 by broth microdilution method
Staphylococcus aureus [5] = assay: Antibacterial activity against Staphylococcus aureus 4116 producing betalactamase PC1 by broth microdilution method
Serratia marcescens [6] = assay: Antibacterial activity against Serratia marcescens 7554 producing beta lactamase SME3 by broth microdilution method
Pseudomonas aeruginosa [7] = assay: Antibacterial activity against Pseudomonas aeruginosa 7052 producing beta lactamase VIM2 by broth microdilution method
Pseudomonas aeruginosa [8] = assay: Antibacterial activity against Pseudomonas aeruginosa 4083 producing beta lactamase OXA10 by broth microdilution method
Escherichia coli [9] = assay: Antibacterial activity against Escherichia coli 6226 producing beta lactamase KPC2 by broth microdilution method
Morganella morganii = assay: Antibacterial activity against Morganella morganii 2574 producing beta lactamase AmpC by broth microdilution method
Pseudomonas aeruginosa [10] = assay: Antibacterial activity against Pseudomonas aeruginosa HPA101-1477 producing beta lactamase IMP1 by broth microdilution method
Pseudomonas aeruginosa [11] = assay: Antibacterial activity against Pseudomonas aeruginosa 18SH producing beta lactamase AmpC by broth microdilution method
Escherichia coli [12] = assay: Antibacterial activity against Escherichia coli 11732 producing beta lactamase CTX-M-15 by broth microdilution method
Providencia stuartii = assay: Antibacterial activity against Providencia stuartii 2772 producing beta lactamase AmpC by broth microdilution method
Klebsiella pneumoniae [13] = assay: Antibacterial activity against Klebsiella pneumoniae 4094 producing beta lactamase TEM26 by broth microdilution method
Escherichia coli [14] = assay: Antibacterial activity against Escherichia coli producing beta lactamase TEM1 by broth microdilution method
Enterobacter cloacae [15] = assay: Antibacterial activity against Enterobacter cloacae 4092 producing beta lactamase AmpC (E2) by broth microdilution method
Enterobacter cloacae [16] = assay: Antibacterial activity against Enterobacter cloacae 908R producing beta lactamase AmpC by broth microdilution method
Enterobacter cloacae [17] = assay: Antibacterial activity against Enterobacter cloacae 4080 producing beta lactamase AmpC (P99) by broth microdilution method
Enterobacter cloacae [18] = assay: Antibacterial activity against Enterobacter cloacae 4081 producing beta lactamase AmpC (E2) by broth microdilution method
Staphylococcus aureus [19] = assay: Antibacterial activity against methicillin-resistant Staphylococcus aureus
Staphylococcus aureus [20] = assay: Antibacterial activity against methicillin-susceptible Staphylococcus aureus

SMILES	MIC (Serratia marcescens [1])	MIC (Klebsiella pneumoniae [2])	MIC (Pseudomonas aeruginosa [3])	MIC (Pseudomonas aeruginosa [4])	MIC (Klebsiella oxytoca)	MIC (Staphylococcus aureus [5])	MIC (Serratia marcescens [6])	MIC (Pseudomonas aeruginosa [7])	MIC (Pseudomonas aeruginosa [8])	MIC (Escherichia coli [9])	MIC (Morganella morganii)	MIC (Pseudomonas aeruginosa [10])	MIC (Pseudomonas aeruginosa [11])	MIC (Escherichia coli [12])	MIC (Providencia stuartii)	MIC (Klebsiella pneumoniae [13])	MIC (Escherichia coli [14])	MIC (Enterobacter cloacae [15])	MIC (Enterobacter cloacae [16])	MIC (Enterobacter cloacae [17])	other results
CO/N=C(\C(=O)N[C@@H]1C(=O)N2C(C(=O)[O-])=C(C[N+]3(C)CCCC3)CS[C@H]12)c1csc(N)n1	0.12 µg/mL (≈ 0.25 µM)	0.25 µg/mL (≈ 0.52 µM)	32 µg/mL (≈ 66.6 µM)	2 µg/mL (≈ 4.16 µM)	2 µg/mL (≈ 4.16 µM)	2 µg/mL (≈ 4.16 µM)	0.25 µg/mL (≈ 0.52 µM)	128 µg/mL (≈ 266 µM)	8 µg/mL (≈ 16.6 µM)	16 µg/mL (≈ 33.3 µM)	0.03 µg/mL (≈ 0.0624 µM)	> 32 µg/mL	32 µg/mL (≈ 66.6 µM)	16 µg/mL (≈ 33.3 µM)	0.25 µg/mL (≈ 0.52 µM)	4 µg/mL (≈ 8.32 µM)	0.12 µg/mL (≈ 0.25 µM)	–	–	–	–
CC(C)(O/N=C(\C(=O)N[C@@H]1C(=O)N2C(C(=O)[O-])=C(C[n+]3ccccc3)CS[C@H]12)c1csc(N)n1)C(=O)O [CEFTAZIDIME]	0.25 µg/mL (≈ 0.457 µM)	2 µg/mL (≈ 3.66 µM)	32 µg/mL (≈ 58.5 µM)	4 µg/mL (≈ 7.32 µM)	0.5 µg/mL (≈ 0.915 µM)	4 µg/mL (≈ 7.32 µM)	0.5 µg/mL (≈ 0.915 µM)	64 µg/mL (≈ 117 µM)	2 µg/mL (≈ 3.66 µM)	32 µg/mL (≈ 58.5 µM)	1 µg/mL (≈ 1.83 µM)	> 32 µg/mL	32 µg/mL (≈ 58.5 µM)	32 µg/mL (≈ 58.5 µM)	4 µg/mL (≈ 7.32 µM)	> 256 µg/mL	0.5 µg/mL (≈ 0.915 µM)	1 µg/mL (≈ 1.83 µM)	> 64 µg/mL	64 µg/mL (≈ 117 µM)	MIC (Enterobacter cloacae [18]): > 128 µg/mL
Nc1nc(/C(=N/O)C(=O)N[C@@H]2C(=O)N3C(C(=O)O)=C(/C=C4\CCN([C@@H]5CCNC5)C4=O)CS[C@H]23)ns1 [CEFTOBIPROLE]	0.12 µg/mL (≈ 0.224 µM)	0.5 µg/mL (≈ 0.935 µM)	32 µg/mL (≈ 59.9 µM)	4 µg/mL (≈ 7.48 µM)	> 32 µg/mL	0.25 µg/mL (≈ 0.468 µM)	0.25 µg/mL (≈ 0.468 µM)	> 128 µg/mL	128 µg/mL (≈ 239 µM)	16 µg/mL (≈ 29.9 µM)	0.03 µg/mL (≈ 0.0561 µM)	> 32 µg/mL	16 µg/mL (≈ 29.9 µM)	> 128 µg/mL	0.015 µg/mL (≈ 0.0281 µM)	0.25 µg/mL (≈ 0.468 µM)	0.5 µg/mL (≈ 0.935 µM)	0.12 µg/mL (≈ 0.224 µM)	4 µg/mL (≈ 7.48 µM)	2 µg/mL (≈ 3.74 µM)	MIC90 (Staphylococcus aureus [19]): 2 µg/mL (≈ 3.74 µM); MIC90 (Staphylococcus aureus [20]): 0.5 µg/mL (≈ 0.935 µM); MIC (Enterobacter cloacae [18]): 1 µg/mL (≈ 1.87 µM)
